These results are taken from PMC9230136 (Pharmaceutics, 2022).

One series relates to PBL stimulated with PHA. The series is described as follows: Cytotoxicity in human PBLs stimulated with PHA. Type of series: cell-based. Particulars: Homo sapiens, 72 h, read-out: IC50 PBLPHA. The text has this:
(§1) Human PBLs were obtained from healthy donors by separation on a Lymphoprep^TM (Serumwerk Bernburg AG) gradient and were used for the evaluation of the cytotoxic potential of compounds under study in normal human cells. Buffy coats were obtained from the Blood Transfusion Service, Azienda Ospedaliera of Padova and provided at this institution for research purposes without identifier. The samples were not obtained specifically for this study, and for this reason ethical approval was not required. Informed consent was obtained from blood donors according to Italian law no. 219 (21 October 2005). Data were treated by the Blood Transfusion Service according to Italian law on personal data management “Codice in materia di protezione dati personali” (Testo Unico D.L. Giugno 30, 2003 196).
(§2) After extensive washing with saline solution (BioConcept, Hank’s Buffered Saline Solution), quiescent PBLs were resuspended (1.0 × 10^6 cells/mL) in RPMI-1640 medium supplemented with 10% fetal bovine serum. Cytotoxicity evaluations were conducted also in cultures of proliferating PBLs, stimulated with […] PHA (Irvine Scientific). Both resting and proliferating lymphocytes were seeded in 96-well plates and maintained overnight at 37 °C in a humidified 5% CO2 incubator. Serial (5-fold) dilutions of the tested compounds were added, and viability was determined 72 h later by the resazurin viability assay as described above.

Another series deals with Zebrafish embryos. Briefly: Acute toxicity assessment in zebrafish embryos. Particulars: 100 nM. Type of series: in vivo, Danio rerio. As for the experimental part: Zebrafish embryos at 72 h post fertilization (hpf) were selected for the acute toxicity assay since, at that time, morphogenesis and function of the primary organ systems are complete. Embryos at 72 hpf were assayed in a 12-well plate, 20 larvae/well for each experimental condition.
The zebrafish embryos were treated as described in the Biological Results and Discussion section using drug concentrations selected on the basis of in vitro experimental data. The drugs were added directly to the fish water from 10 mM stock solutions in DMSO of tested compounds. […] CA-4P was employed as the reference compound.
The experiment was carried out at a constant temperature (28.5 °C) in the dark, and at 24 and 48 h time points, zebrafish were subjected to visual observation and image acquisition under a stereomicroscope (Nikon SMZ745T; Nikon, Japan). The number of dead zebrafish embryos for each condition was recorded, and morphological defects were evaluated. The survival rate (%) after treatment was calculated.

A further series relates to HeLa. The series is described as follows: Antiproliferative assay (resazurin, 72 h). Type of series: cell-based, human. Particulars: Homo sapiens, HeLa, Table 1, mean ± SE. The procedure, abridged:
(§3)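 Resazurin read-out (3–4 h, fluorescence ex 535 nm/em 600 nm) after 72 h of compound exposure at 37 °C, 5% CO2. Media: RPMI-1640 for HT-29, DMEM for the other three lines, each plus 10% FBS. Top concentration 10 μM with fivefold steps, in triplicate.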
(In general: The colour change of resazurin is a common sign of viable cells or microbes.)

A further series has as its system MDA-MB-231. Briefly: Antiproliferative assay (resazurin, 72 h). Type of series: cell-based, human. The settings on record: Homo sapiens, MDA-MB-231; Table 1; mean ± SE; 72 h. The procedure, abridged:
as §3

The test system of the next series is Jurkat. Briefly: Antiproliferative assay (resazurin, 72 h). The format is cell-based, human. The settings on record: Homo sapiens, Jurkat; Table 1; mean ± SE; 72 h. The gist of the method:
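Jurkat T-cell leukemia cells, grown in RPMI-1640 containing 10% fetal bovine serum, 115 units/mL penicillin G and 115 μg/mL streptomycin, were plated in 96-well plates. After 24 h they received serial 5-fold dilutions of test compounds starting at 10 μM, in triplicate, and were kept 72 h at 37 °C in 5% CO2.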

Series [1] concerns A549, MDA-MB-231, HeLa, HT-29 and Jurkat cancer cell lines. The series is described as follows: Antiproliferative activity over the panel of cancer cell lines. The settings on record: Homo sapiens, against three of the five lines (not A549, HT-29); read-out: IC50's, range. Type of series: cell-based, human. The gist of the method:
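HT-29 grown in RPMI-1640, A549, HeLa and MDA-MB-231 in DMEM, both with 10% FBS. Seeded cells treated after 24 h with 5-fold serial dilutions from 10 μM, in triplicate, for 72 h at 37 °C. Viability read by resazurin fluorescence (ex 535/em 600 nm) after 3–4 h.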

Series [2] has as its system Bovine brain tubulin. Briefly: Inhibition of tubulin polymerization. Type of series: biochemical. Particulars: tubulin at 10 μM; read-out: Tubulin Assembly IC50 ± SD. The method, then: (§4) Bovine brain tubulin was purified as described previously. To evaluate the effects of the compounds on tubulin assembly in vitro [35], varying concentrations were preincubated with 10 μM tubulin in 0.8 M monosodium glutamate (pH 6.6) at 30 °C and the reaction mixtures then cooled to 0 °C. After addition of GTP, the mixtures were transferred to 0 °C cuvettes in Beckman Coulter (Brea, CA, USA) DU-7400/DU-7500 recording spectrophotometers equipped with electronic temperature controllers and warmed to 30 °C, and the assembly of tubulin was observed turbidimetrically. […] Inhibition of colchicine binding to tubulin was measured as described before, except that the reaction mixtures contained 0.5 μM tubulin and 5 μM each of [^3H]colchicine and test compound. Only one DEAE-cellulose filter was used per sample, and filtration was by gravity.

Details of series [3]: method as in PMID 31459105. The settings on record: cited from earlier work.
Details of series [4]: method as in PMID 31459105. The settings on record: cited from earlier work. The source holds these as a separate data set.
The subject of another series is quiescent PBLs. The series is described as follows: Cytotoxicity in human PBLs, resting. The format is cell-based. The settings on record: Homo sapiens; PBL not stimulated with PHA; 72 h; read-out: IC50 PBLresting.
From the text: as §1, §2

The subject of series [5] is Bovine brain tubulin. The series is described as follows: Inhibition of [3H]colchicine binding to tubulin. The settings on record: tubulin 0.5 µM, [3H]colchicine 5 µM, compound 5 µM. The method, then: as §4

Consider `COc1ccc(/C=C\c2cc(OC)c(OC)c(OC)c2)cc1O` [CA-4, combretastatin A-4, reference compound], for which the IC50 is 18.6 ± 3.8 nM in the series with PBL stimulated with PHA; 4 ± 1 nM in the series on HeLa; 5 ± 2 nM with MDA-MB-231; 1 ± 0.2 nM with Jurkat; 1 to 5 nM in [1]; […] in the series on Bovine brain tubulin [2]. Besides, the IC50 with quiescent PBLs is above 10000 nM. Further, the “lethality” value in the series on Zebrafish embryos is listed as 100%. Also, the “Results (toxicity evaluation)” value with Zebrafish embryos (72 hpf embryos) was “Toxic”. For the same compound, the biological half-life entry in [3] was “short biological half-life”. Besides, in series [4], the aqueous solubility result is “very poor aqueous solubility”. Besides, the “Colchicine Binding % Inhibition ± SD” value in the series on Bovine brain tubulin [5] is reported as 97 ± 0.1%.

Broadly, the IC50 is the concentration needed to halve the response being measured.
